Assay results as given in patent US6087358A (priority 1997, dated 2000).
In brackets after ≈: the same amount, converted by molar mass. Where two headings read alike, the source gives them in different places.

What was measured:
[1] = test system: Mycobacterium bovis (rBCG-lux); assay: microbe, parasite or virus in culture; format: cell-based, Mycobacterium bovis bacille Calmette Guerin; settings: Mycobacterium tuberculosis variant bovis, 72 h; read-out: % of control, measured in RLUs
Helicobacter pylori = assay: In vitro inhibition of Helicobacter pylori (broth microdilution MIC); settings: for MICs of control drugs relative to expected values: H. pylori ATCC 43; for MIC: Helicobacter pylori
[2] = test system: M. tuberculosis H37 Rv in human THP-1 macrophages; assay: In vitro activity against M. tuberculosis in human macrophages (luciferase bioluminescence); format: cell-based, Mycobacterium tuberculosis, in human THP-1 cells
[3] = test system: Mycobacterium bovis BCG (recombinant strain); assay: microbe, parasite or virus in culture; format: cell-based; settings: 6 days 37° C.; for MIC: Mycobacterium tuberculosis variant bovis BCG, BCG, 144 h, read-out: MIC, column A, 3(S) compounds
[4] = test system: Clostridium difficile ATCC 17857; assay: In vitro inhibition of Clostridium difficile (Oxyrase broth microdilution MIC); format: cell-based; settings: Clostridioides difficile, ATCC17857; Clostridium difficile ATCC 17857, Oxyrase broth; read-out: MIC, column D, 3(S) compounds
Cryptosporidium parvum = assay: Inhibition of Cryptosporidium parvum (ELISA, infected HCT-8 monolayers); format: cell-based; settings: for inhibition at 25 µg/mL / inhibition at 50 µg/mL / inhibition at 100 µg/mL / inhibition at 200 µg/mL: Cryptosporidium parvum, HCT-8, read-out: Percent Inhibition of C. parvum; for inhibition at 25 µg/mL / inhibition at 50 µg/mL / inhibition at 100 µg/mL / inhibition at 200 µg/mL / Percent Inhibition of C. parvum: 48 h
Experimental: Susceptibility testing against Cryptosporidium was performed according to published procedures (K. Woods, M. Nesterenko, S. Upton, "Development of a microtiter ELISA to quantify development of Cryptosporidium parvum in vitro," FEMS Microbiology Letters, 128:89-94 (1995).
Compounds were solubilized to a concentration of 100 mg/mL in 100% DMSO. DMSO solutions of test compounds were added to the test wells of a microplate at a volume that produced a final concentration of DMSO of 0.2%. Monolayers of human ileocecal adenocarcinoma cells (HCT-8) were prepared by growth in RPMI 1640 medium in 96-Well tissue culture trays for 24 h. Oocysts of C. parvum were allowed to excyst in 10% bleach for 10 min prior to use. Monolayers were then infected with 2-3×10^4 oocysts/well and incubated in the presence or absence of compound for 48 h at 35° C. in 5% CO2 and 95% humidity. Background consisted of wells containing killed oocysts (freeze thaw cycle following 30 sec exposure to liquid nitrogen). Growth control wells were infected with 2-3×10^4 oocysts/well in the absence of test compounds. At the end of incubation, wells were washed and fixed by adding 100 uL of 4% formalin in phosphate buffered saline (pH 7.3) per well for 2 h. After blocking with 1% bovine serum albumin, and 0.002% Tween 20, 50 uL of rat anti-Cryptosporidium membrane protein antiserum was added. After 30 min, wells were washed in PBS and 50 uL of secondary antibody (goat anti-rat antibody conjugated with horseradish peroxidase) was added. After 20-30 min, wells were washed again in PBS and 50 uL of 3,3',5,5'-tetramethylbenzidine solution was added. Plates were allowed to develop for 10-15 min and the optical density was read at 630 nm. Percent inhibition was calculated by comparing the optical density of the drug treated group to that of the untreated control.

[5] = 72 h, read-out: MIC against Helicobacter pylori, strain 17 (Table 5A)
[6] = 72 h, read-out: MIC against Helicobacter pylori, strain 19 (Table 5A)
[7] = 72 h, read-out: MIC against Helicobacter pylori, strain 20 (Table 5A)
[8] = 72 h, read-out: MIC against Helicobacter pylori, strain 40 (Table 5A)
[9] = 72 h, read-out: MIC against Helicobacter pylori, strain 43 (Table 5A)
[10] = 72 h, read-out: MIC against Helicobacter pylori, strain 76 (Table 5A)
[11] = ATCC43504, 72 h, read-out: MIC against Helicobacter pylori, strain ATCC 43504 (Table 5A)

## NCC[C@H](O)C(=O)N[C@@H]1C[C@H](N)[C@@H](O[C@H]2O[C@H](CN)[C@@H](O)[C@H](O)[C@H]2O)[C@H](O)[C@H]1O[C@H]1O[C@H](CO)[C@@H](O)[C@H](N)[C@H]1O [Amikacin]
[1]
  activity at 0.15 µg/mL: 52.9%
  activity at 0.31 µg/mL: 31.7%
  activity at 0.62 µg/mL: 18.9%
  activity at 1.25 µg/mL: 18.1%
  activity at 2.5 µg/mL: 10.7%
  activity at 5 µg/mL: 5.2%

## CC1(C)S[C@@H]2[C@H](NC(=O)[C@H](N)c3ccc(O)cc3)C(=O)N2[C@H]1C(=O)O [Amoxicillin, reference compound]
Helicobacter pylori
  MICs of control drugs relative to expected values: within the expected values
Helicobacter pylori; [5]
  MIC: 0.016 µg/mL (≈ 0.0438 µM)
Helicobacter pylori; [6]
  MIC: 0.016 µg/mL (≈ 0.0438 µM)
Helicobacter pylori; [7]
  MIC: 0.032 µg/mL (≈ 0.0876 µM)
Helicobacter pylori; [8]
  MIC: 0.032 µg/mL (≈ 0.0876 µM)
Helicobacter pylori; [9]
  MIC: 0.016 µg/mL (≈ 0.0438 µM)
Helicobacter pylori; [10]
  MIC: 0.032 µg/mL (≈ 0.0876 µM)
Helicobacter pylori; [11]
  MIC: 0.06 µg/mL (≈ 0.164 µM)

## CC[C@@H](CO)NCCN[C@@H](CC)CO [Ethambutol]
[1]
  activity at 0.15 µg/mL: 179%
  activity at 0.31 µg/mL: 152%
  activity at 0.62 µg/mL: 98.8%
  activity at 1.25 µg/mL: 148%
  activity at 2.5 µg/mL: 54.8%
  activity at 5 µg/mL: 53.1%

## NNC(=O)c1ccncc1 [Isoniazid, reference compound]
[1]
  activity at 0.15 µg/mL: 158%
  activity at 0.31 µg/mL: 122%
  activity at 0.62 µg/mL: 110%
  activity at 1.25 µg/mL: 51.1%
  activity at 2.5 µg/mL: 34.1%
  activity at 5 µg/mL: 11.4%
[2]; 0.03 μg/mL, day 1
  RLU values: 20360 RLU
[2]; 0.03 μg/mL, day 2
  RLU values: 61355 RLU
[2]; 0.03 μg/mL, day 3
  RLU values: 89528 RLU
[2]; 0.03 μg/mL, day 4
  RLU values: 68253 RLU
[2]; 0.03 μg/mL, day 7
  RLU values: 89032 RLU
[2]; 0.06 μg/mL, day 1
  RLU values: 32192 RLU
[2]; 0.06 μg/mL, day 2
  RLU values: 36680 RLU
[2]; 0.06 μg/mL, day 3
  RLU values: 40344 RLU
[2]; 0.06 μg/mL, day 4
  RLU values: 27408 RLU
[2]; 0.06 μg/mL, day 7
  RLU values: 15855 RLU
[2]; 0.13 μg/mL, day 1
  RLU values: 31113 RLU
[2]; 0.13 μg/mL, day 2
  RLU values: 33898 RLU
[2]; 0.13 μg/mL, day 3
  RLU values: 36634 RLU
[2]; 0.13 μg/mL, day 4
  RLU values: 25282 RLU
[2]; 0.13 μg/mL, day 7
  RLU values: 13373 RLU

## Cc1ncc([N+](=O)[O-])n1CCO [Metronidazole, reference compound]
Helicobacter pylori
  MICs of control drugs relative to expected values: within the expected values
Helicobacter pylori; [5]
  MIC: 32 µg/mL (≈ 187 µM)
Helicobacter pylori; [6]
  MIC: 0.25 µg/mL (≈ 1.46 µM)
Helicobacter pylori; [7]
  MIC: 1 µg/mL (≈ 5.84 µM)
Helicobacter pylori; [8]
  MIC: 0.25 µg/mL (≈ 1.46 µM)
Helicobacter pylori; [9]
  MIC: 0.032 µg/mL (≈ 0.187 µM)
Helicobacter pylori; [10]
  MIC: 32 µg/mL (≈ 187 µM)
Helicobacter pylori; 72 h, read-out: MIC against Helicobacter pylori, strain B40, Met-S, Clar-S (Table 5B)
  MIC: < 0.5 µg/mL
Helicobacter pylori; 72 h, read-out: MIC against Helicobacter pylori, strain B76, Met-R, Clar-S (Table 5B)
  MIC: 8 µg/mL (≈ 46.7 µM)
Helicobacter pylori; 72 h, read-out: MIC against Helicobacter pylori, strain C1649, Met-R, Clar-R (Table 5B)
  MIC: 16 µg/mL (≈ 93.5 µM)
Helicobacter pylori; 72 h, read-out: MIC against Helicobacter pylori, strain C11403, Met-S, Clar-R (Table 5B)
  MIC: < 0.5 µg/mL
Helicobacter pylori; 72 h, read-out: MIC against Helicobacter pylori, strain C19765 (Table 5B)
  MIC: 8 µg/mL (≈ 46.7 µM)
Helicobacter pylori; 72 h, read-out: MIC against Helicobacter pylori, strain RD26, Met-S, Clar-S (Table 5B)
  MIC: 1 µg/mL (≈ 5.84 µM)
Helicobacter pylori; 72 h, read-out: MIC against Helicobacter pylori, strain rd26, Met-S, Clar-S (Table 5B)
  MIC: 1 µg/mL (≈ 5.84 µM)
Helicobacter pylori; [11]
  MIC: 128 µg/mL (≈ 748 µM)
Helicobacter pylori; ATCC43504, 72 h, read-out: MIC against Helicobacter pylori, strain ATCC 43504, Met-R, Clar-S (Table 5B)
  MIC: 128 to 256 µg/mL (≈ 748 to 1500 µM)
Helicobacter pylori; ATCC43526, 72 h, read-out: MIC against Helicobacter pylori, strain ATCC 43526, Met-R, Clar-S (Table 5B)
  MIC: 16 µg/mL (≈ 93.5 µM)
Helicobacter pylori; ATCC43579, 72 h, read-out: MIC against Helicobacter pylori, strain ATCC 43579, Met-S, Clar-S (Table 5B)
  MIC: 2 µg/mL (≈ 11.7 µM)
Helicobacter pylori; ATCC43629, 72 h, read-out: MIC against Helicobacter pylori, strain ATCC 43629, Met-S, Clar-S (Table 5B)
  MIC: < 0.5 µg/mL

## CCCCCCCCO[C@@H]1COc2nc([N+](=O)[O-])cn2C1 [PA-602, 3S n-Octyloxy-6-nitro-2H-3,4-dihydro-[2-1b]imidazopyran]
[3]
  MIC: < 5 µg/mL
[4]
  MIC: 3.12 µg/mL (≈ 10.5 µM)

## O=[N+]([O-])c1cn2c(n1)OC[C@@H](OCc1ccc(C(F)(F)F)cc1C(F)(F)F)C2 [PA-646]
[3]
  MIC: < 5 µg/mL
[4]
  MIC: 3.12 µg/mL (≈ 7.59 µM)

## COc1ccc(CO[C@@H]2COc3nc([N+](=O)[O-])cn3C2)cc1 [PA-736]
Cryptosporidium parvum; 25 μg/mL
  inhibition at 25 µg/mL: -3.2%
Cryptosporidium parvum; 50 μg/mL
  inhibition at 50 µg/mL: 3%
Cryptosporidium parvum; 100 μg/mL
  inhibition at 100 µg/mL: 45%
Cryptosporidium parvum; 200 μg/mL
  inhibition at 200 µg/mL: 97.7%
[3]
  MIC: 8 µg/mL (≈ 26.2 µM)

## O=[N+]([O-])c1cn2c(n1)OC[C@@H](OCc1ccc(Oc3ccccc3)cc1)C2 [PA-1122]
Cryptosporidium parvum; 25 μg/mL
  inhibition at 25 µg/mL: -1.8%
Cryptosporidium parvum; 50 μg/mL
  inhibition at 50 µg/mL: 17.8%
Cryptosporidium parvum; 100 μg/mL
  inhibition at 100 µg/mL: 61%
Cryptosporidium parvum; 200 μg/mL
  inhibition at 200 µg/mL: 83.5%
[3]
  MIC: 0.06 µg/mL (≈ 0.163 µM)

## O=C(N[C@@H]1COc2nc([N+](=O)[O-])cn2C1)c1ccc(OC(F)(F)F)cc1 [PA-1150]
Cryptosporidium parvum; 25 μg/mL
  inhibition at 25 µg/mL: 4.8%
Cryptosporidium parvum; 50 μg/mL
  inhibition at 50 µg/mL: 1.7%
Cryptosporidium parvum; 100 μg/mL
  inhibition at 100 µg/mL: 30%
Cryptosporidium parvum; 200 μg/mL
  inhibition at 200 µg/mL: 96.2%
[3]
  MIC: 0.5 µg/mL (≈ 1.34 µM)

## COC(C(=O)N[C@@H]1COc2nc([N+](=O)[O-])cn2C1)(c1ccccc1)C(F)(F)F (stereo partly drawn) [PA-1170]
Cryptosporidium parvum; 25 μg/mL
  Percent Inhibition of C. parvum: -3%
Cryptosporidium parvum; 50 μg/mL
  Percent Inhibition of C. parvum: -6%
Cryptosporidium parvum; 100 μg/mL
  Percent Inhibition of C. parvum: 16%
Cryptosporidium parvum; 200 μg/mL
  Percent Inhibition of C. parvum: -3.6%
[3]
  MIC, column A, 3(S) compounds: 0.13

## O=C(Nc1ccc(Cl)cc1)N[C@@H]1COc2nc([N+](=O)[O-])cn2C1 [PA-1282, 4-Chlorophenyl Urea of 3S 3-Amino-6-nitro-3,4-dihydro-[2-1b]imidazopyran]
[3]
  MIC: ≤ 0.002 µg/mL

## O=C(Nc1ccc(OC(F)(F)F)cc1)N[C@@H]1COc2nc([N+](=O)[O-])cn2C1 [PA-1298]
Cryptosporidium parvum; 200 μg/mL, HCT-8 monolayers
  Toxic (given in place of percent inhibition): Toxic
Cryptosporidium parvum; 25 μg/mL
  inhibition at 25 µg/mL: 11.9%
Cryptosporidium parvum; 50 μg/mL
  inhibition at 50 µg/mL: 30%
Cryptosporidium parvum; 100 μg/mL
  inhibition at 100 µg/mL: 85%
[3]
  MIC: 0.015 µg/mL (≈ 0.0387 µM)

## [H]/N=C(/N)N[C@H]1[C@H](O)[C@@H](O)[C@H](O[C@@H]2O[C@@H](C)[C@](O)(C=O)[C@H]2O[C@@H]2O[C@@H](CO)[C@H](O)[C@@H](O)[C@@H]2NC)[C@@H](N/C(N)=N\[H])[C@@H]1O [Streptomycin]
[1]
  activity at 0.15 µg/mL: 63.5%
  activity at 0.31 µg/mL: 39.8%
  activity at 0.62 µg/mL: 19.6%
  activity at 1.25 µg/mL: 11.7%
  activity at 2.5 µg/mL: 8%
  activity at 5 µg/mL: 4.4%
